Read-outs that look alike come from different tables or passages of the source.
Assays:
[1] = test system: DevS201 (cytoplasmic domain of DevS sensor kinase); assay: DevS201 autokinase (autophosphorylation) assay, high-throughput filtration format; format: biochemical, Mycobacterium tuberculosis; details: for inhibition of DevS autokinase activity (in words): Pep peptides at 3 mM and 5 mM, preincubated with DevS201 (15 μM) 30 mins at 25°C, three independent experiments, poor reproducibility due to protein aggregation; for % Inhibition of autokinase activity: mean of three independent experiments, 0 = lack of inhibition
[2] = test system: Rv3134c promoter (DevR-dependent); format: cell-based, Mycobacterium tuberculosis; details: for % Inhibition of reporter activity, Rv3134c promoter: hypoxic, mean of two independent experiments; for inhibition of Rv3134c promoter activity: peptides at 2.5 and 5 mM, two independent experiments
[3] = test system: sigA promoter (not regulated by DevR); format: cell-based, Mycobacterium tuberculosis; details: for % Inhibition of reporter activity, sigA promoter: peptide 5 mM, 0 = no detectable inhibition
[4] = test system: CHO (Chinese hamster ovary cells); format: cell-based; details: MTT, 5 mM and 2.5 mM peptide, 48 h, relative to the DMSO vehicle control, duplicate values
Protocol: (§1) Figure 6 Cytotoxicity of peptides. Percentage cytotoxicity due to exposure to peptides was assessed in HepG2 and CHO cell lines using the MTT assay. The cells were exposed to DevRS A-ext and DevRS D peptides at 2.5 mM and 5 mM concentration in 96-well plate format for 48 h. Percentage cytotoxicity is shown with respect to the DMSO control as mean ± SD for duplicate values.
(§2) The cytotoxicity of DevRS1 peptide was assessed in CHO (Chinese hamster ovary cells) and HepG2 (human liver hepatocellular carcinoma) cell lines. Both the cell lines were maintained in DMEM supplemented with 10% FBS at 37°C in 5% CO2. Approximately, 10^4 cells were seeded per well in a 96-well plate and incubated at 37 °C for 12–16 h. The peptides were diluted in 125 μl DMEM and added onto cells (final volume 250 μl per well, 2.5 and 5 mM final peptide concentrations), and the plate was incubated at 37°C in 5% CO2 for 48 h. Subsequently, 20 μl of MTT (Sigma 5 μg μl^-1) was added and incubated for 4–5 h at 37°C. Following incubation, media was discarded and the formazan crystals were solubilized by adding 200 μl DMSO and the absorbance measured at A560 nm. The percentage toxicity was calculated as: […]

[5] = test system: HepG2 (human liver hepatocellular carcinoma); format: cell-based; details: HepG2 cells; MTT; 5 mM and 2.5 mM peptide; 48 h; relative to the DMSO vehicle control; duplicate values
Protocol: as §1, §2

[6] = test system: M. tuberculosis; format: cell-based, Mycobacterium tuberculosis; details: aerobic cultures; with respect to the DMSO control; two independent experiments
[7] = test system: M. tb H37Rv; assay: REMA, aerobic Resazurin reduction assay; format: cell-based, Mycobacterium tuberculosis; details: 64 h at 37°C, Resazurin fluorescence, two independent experiments
[8] = test system: DevS ~ P to DevR phosphotransfer; assay: In vitro phosphotransfer assay from DevS~P to DevR; format: biochemical, Mycobacterium tuberculosis; details: data not shown
Protocol: To study the phosphotransfer reaction, DevS201 (15 μM final concentration) was phosphorylated for 60 mins as described above. Subsequently, full-length DevR or DevRN protein (1–144 amino acid residues, 20 μM final concentration) was added to the phosphorylated DevS201 mix, and the reaction was incubated at 25°C for 2 mins. The reaction was terminated with 10 μl of 2X stop buffer (100 mM Tris-Cl, pH 6.8, 20% glycerol, 2% SDS, 280 mM β-mercaptoethanol, 0.01% bromophenol blue) and the samples were resolved on SDS-PAGE. The gel was rinsed in water and subjected to autoradiography.

HNTRGEE [Pep A]
inhibition of DevS autokinase activity (in words) ([1]; then ATP 1 h): inhibit DevS autokinase activity to varying degrees

ITNPDPY [Pep D]
inhibition of DevS autokinase activity (in words) ([1]; then ATP 1 h): inhibit DevS autokinase activity to varying degrees

KDIKGME [DevRS A, DevR mimetic peptide KDIKGME]
% Inhibition of reporter activity, Rv3134c promoter ([2]; peptide 2.5 mM): 30% | % Inhibition of reporter activity, Rv3134c promoter ([2]; peptide 5 mM): ~ 45% | % Inhibition of reporter activity, sigA promoter ([3]; aerobic): 6% | % Inhibition of reporter activity, sigA promoter ([3]; hypoxic): ~ 14%

SLFRDWP [Pep C]
% Inhibition of autokinase activity ([1]; Pep peptide 5 mM): 0% | inhibition of DevS autokinase activity (in words) ([1]; then ATP 1 h): did not inhibit autokinase activity at any of the concentrations tested | % Inhibition of autokinase activity ([1]; peptide 3 mM): 0%

TFESYSL [Pep B]
inhibition of DevS autokinase activity (in words) ([1]; then ATP 1 h): inhibit DevS autokinase activity to varying degrees

VRLPD [DevRS D, DevR mimetic peptide VRLPD]
Percentage cytotoxicity [4]: 20-40% | Percentage cytotoxicity [5]: 20-40% | CFU: % Inhibition of Viability [6]: ≤ 10% | inhibition of viability, REMA [7]: ≤ 15% | inhibition of Rv3134c promoter activity ([2]; […]): 20-30% | inhibition of Rv3134c promoter activity ([2]; hypoxic conditions): ~40% | inhibition of DevS autokinase activity ([1]; DevRS peptide 5 mM, preincubated with DevS201 30 mins at 25°C, then ATP 1 h, mean of two independent experiments): 37% | inhibition of sigA promoter activity (in words) [3]: did not inhibit sigA promoter activity | inhibition of phosphosignal transfer from DevS ~ P to DevR (in words) [8]: neither DevRS A-ext nor DevRS D inhibited this reaction

— paper PMC4110071, “DevR (DosR) mimetic peptides impair transcriptional regulation and survival of Mycobacterium tuberculosis under hypoxia by inhibiting the autokinase activity of DevS sensor kinase” (BMC Microbiology, 2014)
